# Measurements taken from patent US20020177616A1, “Use of chromans” (priority 2001, published 2002).
# Counter-ions that a name gives are not always drawn.
# Columns and labels:
# [1] = target: T1, human recombinant 5-HT1A receptors (Homo sapiens, UniProt P08908); experiment: GTP gamma[S-35] binding, agonistic action on human recombinant 5-HT1A receptors; format: biochemical; conditions: for EC50: GTP gamma[S-35] binding, human recombinant 5-HT1A receptors
# T1 sequence (P08908 1-422): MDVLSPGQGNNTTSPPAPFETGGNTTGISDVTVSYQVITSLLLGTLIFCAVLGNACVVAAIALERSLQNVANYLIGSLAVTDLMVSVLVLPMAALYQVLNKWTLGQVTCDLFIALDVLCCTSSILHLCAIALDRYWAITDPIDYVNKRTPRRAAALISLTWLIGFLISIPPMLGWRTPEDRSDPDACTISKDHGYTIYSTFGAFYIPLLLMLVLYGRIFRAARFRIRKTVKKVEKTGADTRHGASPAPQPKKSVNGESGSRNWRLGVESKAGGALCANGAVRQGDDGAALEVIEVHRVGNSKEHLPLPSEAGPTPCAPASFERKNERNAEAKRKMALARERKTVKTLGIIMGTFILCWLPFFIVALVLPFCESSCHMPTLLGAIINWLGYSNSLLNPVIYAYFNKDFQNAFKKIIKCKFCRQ
# Procedure: Determination of the Avonistic action on Human Recombinant 5-HT1A Receptors
# Signal transduction studies were carried out on human recombinant 5-HT1A receptors using the guanosine 5′-O-(3-[S-35]thio)-triphosphate (GTP gamma[S-35]) binding technique (modified according to Elliott and Reynolds Europ J. Pharmacol 1999, 386, 313-315 and Sim et al. J. Neurosci 1996, 16, 8057-8066).
# MPTP-monkey model = experiment: chronic MPTP monkey model of Parkinson's disease; format: in vivo, rhesus monkeys (Macaca fascicularis); parameters: key to Slowing of the development of Parkinsonism: 0 = No slowing of the development of parkinsonism; + = Statistically significant delay in the attainment of Score 8; conditions: for Symptomatology on the last 3 days: MPTP only group = 100%
"potency relative to repinotan hydrochloride ([1]; 5-HT1A agonism, from EC50 values)",EC50 [1] [nM],Compound,neuroprotective activity after oral administration (MPTP-monkey model; 1 mg/kg p.o. bid),reduction of the degree of severity of the symptoms (symptomatic action) compared with control (MPTP-monkey model; 1 mg/kg p.o. bid) [%],Slowing of the development of Parkinsonism (MPTP-monkey model; MPTP 0.2 mg/kg i.v. daily + 1.0 mg/kg p.o. bid),Symptomatology on the last 3 days (MPTP-monkey model; MPTP + 1.0 mg/kg p.o. bid) [%],neuroprotective activity after oral administration (MPTP-monkey model; 2 mg/kg p.o. bid),symptomatic action (MPTP-monkey model; 2 mg/kg p.o. bid),Slowing of the development of Parkinsonism (MPTP-monkey model; MPTP 0.2 mg/kg i.v. daily + 2.0 mg/kg p.o. bid),Symptomatology on the last 3 days (MPTP-monkey model; MPTP + 2.0 mg/kg p.o. bid) [%]
approximately twice,0.19,"CC(C)Oc1cccc2c1O[C@@H](CNCCCCN1C(=O)c3ccccc3S1(=O)=O)CC2 [Example 11, 2-[4-({[(2R)-8-isopropoxy-chroman-2-yl]methyl}amino)butyl]-1,2-benzisothiazol-3(2H)-one 1,1-dioxide hydrochloride]",slowed the development of the parkinsonism symptoms,22,+,78,–,–,–,–
–,0.51,"Cl.O=C1c2ccccc2S(=O)(=O)N1CCCCNC[C@H]1CCc2ccccc2O1 [Repinotan hydrochloride, 2-[4-({[(2R)-chroman-2-yl]methyl}amino)butyl]-1,2-benzisothiazol-3(2H)-one 1,1-dioxide hydrochloride, reference compound]",–,–,–,–,slowed the development of the parkinsonism symptoms,not observed,+,100
